The target in one experiment is human P2X2/3 receptor (Homo sapiens (Human), UniProt P56373+Q9UBL9). Briefly: Intracellular calcium measurement (FLIPR, Fluo-4) of antagonist activity at human P2X2/3 receptors. In kind it is cell-based. The settings on record: human P2X2/3, FLIPR calcium assay, agonist α,β-Me-ATP; read-out: hP2X2/3 IC50. In short, it runs like this:
(§1)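 Antagonism quantified from peak calcium fluorescence (Fluo-4, FLIPR, 90 sec read) evoked by EC80 α,β-Me-ATP, after a 30 min, 37° C. compound pretreatment in 1% DMSO. Human P2X3- or P2X2/3-expressing cells used; triplicate means fitted for IC50, percent maximal inhibition and Hill coefficient.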

A further experiment has as its target human P2X3 receptor (Homo sapiens (Human), UniProt P56373). The experiment can be described thus: Intracellular calcium measurement (FLIPR, Fluo-4) of antagonist activity at human P2X3 receptors. In kind it is cell-based. The settings on record: read-out: hP2X3 IC50. In short, it runs like this: as §1
(Calcium assays in cells follow changes in intracellular calcium, usually with a dye or a luminescent sensor.)

Where [1] appears, read: human P2X3, FLIPR calcium assay, agonist α,β-Me-ATP.

Among the data in patent publication US10174016B2 (BAYER AKTIENGESELLSCHAFT, priority 2014, dated 2019) are IC50 values, retold here.

Like-named read-outs stand apart in the source and are kept apart here.

Sequence of human P2X3 receptor (P56373 whole entry): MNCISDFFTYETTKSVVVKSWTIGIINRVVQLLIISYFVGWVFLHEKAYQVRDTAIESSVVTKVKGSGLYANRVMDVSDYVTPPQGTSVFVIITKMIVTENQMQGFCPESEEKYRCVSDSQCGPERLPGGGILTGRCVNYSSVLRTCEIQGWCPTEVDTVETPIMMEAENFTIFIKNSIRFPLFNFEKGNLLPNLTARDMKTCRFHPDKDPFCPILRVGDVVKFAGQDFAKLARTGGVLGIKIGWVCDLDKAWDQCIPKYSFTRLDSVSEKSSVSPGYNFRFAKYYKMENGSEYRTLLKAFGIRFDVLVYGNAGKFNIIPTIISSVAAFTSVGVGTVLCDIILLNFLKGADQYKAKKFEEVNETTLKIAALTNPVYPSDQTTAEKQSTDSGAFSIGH
Sequence of human P2X2/3 receptor (P56373 whole entry): as above
Sequence of human P2X2/3 receptor (Q9UBL9 whole entry): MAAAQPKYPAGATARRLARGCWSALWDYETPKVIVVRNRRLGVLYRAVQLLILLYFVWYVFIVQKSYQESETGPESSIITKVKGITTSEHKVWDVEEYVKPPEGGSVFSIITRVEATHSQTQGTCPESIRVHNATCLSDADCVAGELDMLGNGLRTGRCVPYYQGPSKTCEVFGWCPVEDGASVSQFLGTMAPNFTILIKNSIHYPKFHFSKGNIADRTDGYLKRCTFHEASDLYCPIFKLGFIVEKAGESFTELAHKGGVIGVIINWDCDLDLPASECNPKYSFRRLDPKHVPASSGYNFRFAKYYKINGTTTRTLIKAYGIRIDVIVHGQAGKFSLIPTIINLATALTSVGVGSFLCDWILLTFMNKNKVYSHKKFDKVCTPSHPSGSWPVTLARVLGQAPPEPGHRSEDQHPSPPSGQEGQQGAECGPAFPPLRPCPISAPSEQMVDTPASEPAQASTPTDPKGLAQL

`Cc1ccc([C@@H](C)NC(=O)c2cc(O[C@@H]3CCOC3)cc(-c3ncc(C(C)C)s3)c2)nn1` [Example 246, N-[(1R)-1-(6-methylpyridazin-3-yl)ethyl]-3-[5-(propan-2-yl)-1,3-thiazol-2-yl]-5-[(3R)-tetrahydrofuran-3-yloxy]benzamide]: the IC50 at human P2X2/3 receptor was 0.982 µM; on human P2X3 receptor (setting [1]) it was 0.266 µM.

In the case of `Cc1cnc(-c2cc(OC[C@H]3CN(C)CCO3)cc(C(=O)N[C@H](C)c3ccc(C(F)(F)F)nn3)c2)s1` [Example 373, 3-{[(2R)-4-methylmorpholin-2-yl]methoxy}-5-(5-methyl-1,3-thiazol-2-yl)-N-{(1R)-1-[6-(trifluoromethyl)pyridazin-3-yl]ethyl}benzamide], the IC50 at human P2X2/3 receptor is 2.83 µM; on human P2X3 receptor (setting [1]), 0.021 µM.

As to `Cc1ccc(CNC(=O)c2cc(OCC3CCOCC3)cc(-c3ncc(C)s3)c2)nn1` [Example 93, N-[(6-Methylpyridazin-3-yl)methyl]-3-(5-methyl-1,3-thiazol-2-yl)-5-(tetrahydro-2H-pyran-4-ylmethoxy)benzamide], the IC50 on human P2X2/3 receptor was 0.385 µM; at human P2X3 receptor (setting [1]) it was 0.008 µM.

For the molecule `CCc1cnc(-c2cc(OC[C@H]3CCOC3)cc(C(=O)N[C@H](C)c3cnc(C(F)(F)F)nc3)c2)s1` [Example 278, 3-(5-ethyl-1,3-thiazol-2-yl)-5-[(3S)-tetrahydrofuran-3-ylmethoxy]-N-{(1R)-1-[2-(trifluoromethyl)pyrimidin-5-yl]ethyl}benzamide], the results for the IC50 on human P2X2/3 receptor and on human P2X3 receptor (setting [1]) were 0.023 µM and 0.002 µM, respectively.

With `Cc1cnc(-c2cc(OC3CCOCC3)cc(C(=O)NC(C)c3ncc(Cl)cc3F)c2)s1` (centres unmarked) [Example 81, N-[1-(5-Chloro-3-fluoropyridin-2-yl)ethyl]-3-(5-methyl-1,3-thiazol-2-yl)-5-(tetrahydro-2H-pyran-4-yloxy)benzamide], the IC50 came to 0.034 µM at human P2X2/3 receptor and 0.003 µM at human P2X3 receptor (setting [1]).

In the case of `Cc1ccc([C@@H](C)NC(=O)c2cc(OC[C@H]3CCOC3)cc(-c3ncc(C)s3)c2)nn1` [Example 71, N-[(1R)-1-(6-Methylpyridazin-3-yl)ethyl]-3-(5-methyl-1,3-thiazol-2-yl)-5-[(3S)-tetrahydrofuran-3-ylmethoxy]benzamide], the IC50 is 0.315 µM at human P2X2/3 receptor and 0.015 µM on human P2X3 receptor (setting [1]).

For `Cc1cnc(-c2cc(O[C@@H]3C[C@H]4CC[C@@H](C3)N4C)cc(C(=O)N[C@H](C)c3cnc(C(F)(F)F)nc3)c2)s1` [Example 217, 3-{[(3-exo)-8-methyl-8-azabicyclo[3.2.1]oct-3-yl]oxy}-5-(5-methyl-1,3-thiazol-2-yl)-N-{(1R)-1-[2-(trifluoromethyl)pyrimidin-5-yl]ethyl} benzamide], the figures for the IC50 on human P2X2/3 receptor and at human P2X3 receptor (setting [1]) were 1.75 µM and 0.025 µM, respectively.

On to `Cc1cnc(-c2cc(OCC3CN(C)CCO3)cc(C(=O)N[C@H](C)c3cnc(C(F)(F)F)nc3)c2)s1` (stereo partly drawn) [Example 353, 3-{[4-methylmorpholin-2-yl]methoxy}-5-(5-methyl-1,3-thiazol-2-yl)-N-{(1R)-1-[2-(trifluoromethyl)pyrimidin-5-yl]ethyl}benzamide], for which the results for the IC50 at human P2X2/3 receptor and at human P2X3 receptor (setting [1]) were 0.427 µM and 0.007 µM, respectively.

With `Cc1cnc(-c2cc(OC3CCNCC3)cc(C(=O)N[C@H](C)c3ccc(C(F)(F)F)nn3)c2)s1` [Example 201, 3-(5-methyl-1,3-thiazol-2-yl)-5-(piperidin-4-yloxy)-N-{(1R)-1-[6-(trifluoromethyl)pyridazin-3-yl]ethyl}benzamide], the IC50 at human P2X2/3 receptor was found to be 1.85 µM; at human P2X3 receptor (setting [1]), 0.016 µM.

Take `Cc1ccc([C@@H](C)NC(=O)c2cc(OC[C@@H]3CCCO3)cc(-c3ncc(C)s3)c2)nn1` [Example 59, N-[(1R)-1-(6-Methylpyridazin-3-yl)ethyl]-3-(5-methyl-1,3-thiazol-2-yl)-5-[(2S)-tetrahydrofuran-2-ylmethoxy]benzamide]: the figures for the IC50 on human P2X2/3 receptor and at human P2X3 receptor (setting [1]) were 0.507 µM and 0.013 µM, respectively.

For the molecule `Cc1cnc(-c2cc(OCC3CCOCC3)cc(C(=O)N[C@H](C)c3cnc(C(F)(F)F)nc3)c2)s1` [Example 98, 3-(5-Methyl-1,3-thiazol-2-yl)-5-(tetrahydro-2H-pyran-4-ylmethoxy)-N-[(1R)-1-[2-(trifluoromethyl)pyrimidin-5-yl]ethyl]benzamide], the IC50 was 0.019 µM at human P2X2/3 receptor and 0.001 µM at human P2X3 receptor (setting [1]).

For the molecule `COCCOc1cc(C(=O)N[C@H](C)c2cnc(C)nc2)cc(-c2ncc(C)s2)c1` [Example 136, 3-(2-Methoxyethoxy)-N-[(1R)-1-(2-methylpyrimidin-5-yl)ethyl]-5-(5-methyl-1,3-thiazol-2-yl)benzamide], the IC50 at human P2X2/3 receptor came to 2.78 µM; on human P2X3 receptor (setting [1]), 0.196 µM.

With `Cc1cnc(-c2cc(OCC3CC(F)CN3C)cc(C(=O)N[C@H](C)c3cnc(C(F)(F)F)nc3)c2)s1` (stereo partly drawn) [Example 364, 3-{[4-fluoro-1-methylpyrrolidin-2-yl]methoxy}-5-(5-methyl-1,3-thiazol-2-yl)-N-{(1R)-1-[2-(trifluoromethyl)pyrimidin-5-yl]ethyl}benzamide], the IC50 at human P2X2/3 receptor is 0.943 µM; on human P2X3 receptor (setting [1]), 0.016 µM.

On to `Cc1cnc(-c2cc(O[C@H]3CCOC3)cc(C(=O)NC(C)c3ncc(Cl)cc3F)c2)s1` (stereo partly drawn) [Example 134, N-[1-(5-Chloro-3-fluoropyridin-2-yl)ethyl]-3-(5-methyl-1,3-thiazol-2-yl)-5-[(3S)-tetrahydrofuran-3-yloxy]benzamide], for which the IC50 at human P2X2/3 receptor was found to be 0.21 µM; on human P2X3 receptor (setting [1]), 0.015 µM.

On to `Cc1cnc(CNC(=O)c2cc(Oc3ccnc(C)c3)cc(-c3ncc(C)s3)c2)cn1` [Example 104, N-[(5-Methylpyrazin-2-yl)methyl]-3-[(2-methylpyridin-4-yl)oxy]-5-(5-methyl-1,3-thiazol-2-yl)benzamide], for which the IC50 amounted to 0.377 µM at human P2X2/3 receptor and 0.051 µM at human P2X3 receptor (setting [1]).

As to `Cc1cnc([C@@H](C)NC(=O)c2cc(OC3CCN(CC(F)(F)F)CC3)cc(-c3ncc(C)s3)c2)cn1` [Example 313, N-[(1R)-1-(5-methylpyrazin-2-yl)ethyl]-3-(5-methyl-1,3-thiazol-2-yl)-5-{[1-(2,2,2-trifluoroethyl)piperidin-4-yl]oxy}benzamide], the IC50 at human P2X2/3 receptor worked out at 0.2 µM; at human P2X3 receptor (setting [1]) it was 0.011 µM.

Turning to `Cc1ccc([C@@H](C)NC(=O)c2cc(OCC3CC3)cc(-c3ncc(C)s3)c2)nn1` [Example 8, 3-(Cyclopropylmethoxy)-N-[(1R)-1-(6-methylpyridazin-3-yl)ethyl]-5-(5-methyl-1,3-thiazol-2-yl)benzamide], the IC50 at human P2X2/3 receptor amounted to 0.09 µM; at human P2X3 receptor (setting [1]), 0.003 µM.

Consider `Cc1ccc([C@@H](C)NC(=O)c2cc(OC[C@@H]3CCOC3)cc(-c3ncc(C4CCC4)s3)c2)nn1` [Example 261, 3-(5-cyclobutyl-1,3-thiazol-2-yl)-N-[(1R)-1-(6-methylpyridazin-3-yl)ethyl]-5-[(3R)-tetrahydrofuran-3-ylmethoxy]benzamide], for which the IC50 is 0.317 µM on human P2X2/3 receptor and 0.045 µM at human P2X3 receptor (setting [1]).

As to `Cc1cnc(-c2cc(OC3C4COCC3CN(C(C)C)C4)cc(C(=O)N[C@H](C)c3cnc(C(F)(F)F)nc3)c2)s1` (stereo partly drawn) [Example 344, 3-[(7-isopropyl-3-oxa-7-azabicyclo[3.3.1]non-9-yl)oxy]-5-(5-methyl-1,3-thiazol-2-yl)-N-{(1R)-1-[2-(trifluoromethyl)pyrimidin-5-yl]ethyl}benzamide], the IC50 at human P2X2/3 receptor worked out at 0.987 µM; at human P2X3 receptor (setting [1]) it was 0.034 µM.

For the molecule `Cc1ccc([C@@H](C)NC(=O)c2cc(OC[C@H]3CCCO3)cc(-c3ncc(C(C)C)s3)c2)nn1` [Example 273, N-[(1R)-1-(6-methylpyridazin-3-yl)ethyl]-3-[5-(propan-2-yl)-1,3-thiazol-2-yl]-5-[(2R)-tetrahydrofuran-2-ylmethoxy]benzamide], the IC50 is 0.254 µM on human P2X2/3 receptor and 0.028 µM on human P2X3 receptor.

`Cc1cnc(-c2cc(O[C@@H]3CCOC3)cc(C(=O)NCc3ccc(C(F)(F)F)nn3)c2)s1` [Example 21, 3-(5-Methyl-1,3-thiazol-2-yl)-5-[(3R)-tetrahydrofuran-3-yloxy]-N-{[6-(trifluoromethyl)pyridazin-3-yl]methyl}benzamide]: the IC50 on human P2X2/3 receptor worked out at 0.445 µM; at human P2X3 receptor (setting [1]) it was 0.071 µM.

Turning to `Cc1cnc(-c2cc(OCC3CCOCC3)cc(C(=O)NC(C)c3ncc(Cl)cc3F)c2)s1` (centres unmarked) [Example 95, N-[1-(5-Chloro-3-fluoropyridin-2-yl)ethyl]-3-(5-methyl-1,3-thiazol-2-yl)-5-(tetrahydro-2H-pyran--4-ylmethoxy)benzamide], the IC50 at human P2X2/3 receptor was found to be 0.129 µM; at human P2X3 receptor (setting [1]) it was 0.002 µM.

In the case of `Cc1cnc(-c2cc(OC[C@H]3CN(C)C(=O)CO3)cc(C(=O)N[C@H](C)c3cnc(C(F)(F)F)nc3)c2)s1` [Example 399, 3-{[(2R)-4-methyl-5-oxomorpholin-2-yl]methoxy}-5-(5-methyl-1,3-thiazol-2-yl)-N-{(1R)-1-[2-(trifluoromethyl)pyrimidin-5-yl]ethyl}benzamide], the IC50 came to 1.72 µM at human P2X2/3 receptor and 0.069 µM at human P2X3 receptor (setting [1]).

With `Cc1cnc(-c2cc(OC3CCN(C(C)C)CC3)cc(C(=O)N[C@H](C)c3cnc(C(F)(F)F)nc3)c2)s1` [Example 140, 3-(5-Methyl-1,3-thiazol-2-yl)-5-{[1-(propan-2-yl)piperidin-4-yl]oxy}-N-{(1R)-1-[2-(trifluoromethyl)pyrimidin-5-yl]ethyl}benzamide], the figures for the IC50 on human P2X2/3 receptor and on human P2X3 receptor (setting [1]) were 1.29 µM and 0.033 µM, respectively.

Consider `CCc1cnc(-c2cc(OC[C@H]3CN(C)CCO3)cc(C(=O)N[C@H](C)c3cnc(C(F)(F)F)nc3)c2)s1` [Example 377, 3-(5-ethyl-1,3-thiazol-2-yl)-5-{[(2R)-4-methylmorpholin-2-yl]methoxy}-N-{(1R)-1-[2-(trifluoromethyl)pyrimidin-5-yl]ethyl}benzamide], for which the IC50 at human P2X2/3 receptor is 0.273 µM; on human P2X3 receptor (setting [1]), 0.005 µM.
